Source: ChEMBL document CHEMBL3526148, “Cerebrospinal fluid can be used as a surrogate to assess brain exposures of breast cancer resistance protein and P-glycoprotein substrates” (Drug Metab Dispos, 2012)
Blank lines part the entries; values can stand above or below the compound they belong to.

What was measured:
Format in all cases: ADME, cell-based
[1] = Inhibition of P-gp-mediated [3H]-digoxin transport in human Caco2 cells at 3 uM after 30 mins; details: caco-2, 0.5 h
[2] = target: T1, Broad substrate specificity ATP-binding cassette transporter ABCG2 (Homo sapiens, UniProt Q9UNQ0); assay: Inhibition of BCRP-mediated [3H]estrone-3-sulfate transport in human Caco2 cells at 3 uM after 30 mins; details: caco-2, 0.5 h
T1 sequence (Q9UNQ0 whole entry): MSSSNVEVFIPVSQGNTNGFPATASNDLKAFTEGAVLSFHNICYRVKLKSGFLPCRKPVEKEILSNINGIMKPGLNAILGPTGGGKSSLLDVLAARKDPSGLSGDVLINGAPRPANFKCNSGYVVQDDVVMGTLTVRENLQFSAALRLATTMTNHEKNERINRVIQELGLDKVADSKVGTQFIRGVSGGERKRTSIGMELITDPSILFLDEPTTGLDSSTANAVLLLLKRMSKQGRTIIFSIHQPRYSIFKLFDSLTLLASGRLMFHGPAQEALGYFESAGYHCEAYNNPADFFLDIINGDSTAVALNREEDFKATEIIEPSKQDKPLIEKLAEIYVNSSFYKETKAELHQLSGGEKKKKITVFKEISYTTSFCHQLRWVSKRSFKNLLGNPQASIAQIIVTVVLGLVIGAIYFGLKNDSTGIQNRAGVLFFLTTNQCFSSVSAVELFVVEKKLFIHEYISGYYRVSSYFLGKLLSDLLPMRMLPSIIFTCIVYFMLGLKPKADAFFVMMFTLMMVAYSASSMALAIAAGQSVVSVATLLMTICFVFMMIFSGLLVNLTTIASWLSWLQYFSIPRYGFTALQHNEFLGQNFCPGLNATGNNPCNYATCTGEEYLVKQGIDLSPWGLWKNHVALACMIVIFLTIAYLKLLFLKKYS

[3] = Apparent permeability from apical to basolateral side in human Caco2 cells at 5 uM after 2 hrs; details: Caco-2
[4] = Apparent permeability from basolateral to apical side in human Caco2 cells at 5 uM after 2 hrs; details: Caco-2
[5] = Inhibition of P-gp-mediated [3H]-digoxin transport in human Caco2 cells at 10 to 50 uM after 30 mins; details: caco-2, 0.5 h
[6] = Inhibition of P-gp-mediated [3H]-digoxin transport in human Caco2 cells at 1 uM after 30 mins; details: caco-2, 0.5 h
[7] = target: T1, Broad substrate specificity ATP-binding cassette transporter ABCG2; assay: Inhibition of BCRP-mediated [3H]estrone-3-sulfate transport in human Caco2 cells at 1 uM after 30 mins; details: caco-2, 0.5 h

inhibition (INH) [1]: Active | inhibition (INH) [2]: Active
Structure (SMILES): COc1cc2c(cc1OC)CN(CCc1ccc(NC(=O)c3cccc4c(=O)c5cccc(OC)c5[nH]c34)cc1)CC2

Structure (SMILES): COc1ccc2c3c([nH]c2c1)[C@H](CC(C)C)N1C(=O)[C@H](CCC(=O)OC(C)(C)C)NC(=O)[C@@H]1C3
inhibition (INH) [1]: Not Active

Papp A→B at 2 h, 5 µM [3]: 2 ×10⁻⁶ cm/s | Papp B→A at 2 h, 5 µM [4]: 9.8 ×10⁻⁶ cm/s | inhibition (INH) [5]: Not Active
Structure (SMILES): O=C1CN(/N=C/c2ccc(-c3ccc([N+](=O)[O-])cc3)o2)C(O)=N1 [DANTROLENE]

inhibition (INH) [6]: Active | inhibition (INH) [7]: Not Active
Structure (SMILES): C/C=C/C[C@@H](C)C(=O)[C@H]1C(=O)N[C@@H](C(C)C)C(=O)N(C)CC(=O)N(C)[C@@H](CC(C)C)C(=O)N[C@@H](C(C)C)C(=O)N(C)[C@@H](CC(C)C)C(=O)N[C@@H](C)C(=O)N[C@H](C)C(=O)N(C)[C@@H](CC(C)C)C(=O)N(C)[C@@H](CC(C)C)C(=O)N(C)[C@@H](C(C)C)C(=O)N1C [VALSPODAR]
